Experiments:
[1] = Stability study of Atazanavir and Ritonavir tablet; assay type: physicochemical
Text: Stability study data of Atazanavir and Ritonavir tablet: [table]

[2] = manufactured in solid dosage form such as tablet; U.S. Pat. No. 6,458,818; cited from earlier work

With COC(=O)N[C@H](C(=O)N[C@@H](Cc1ccccc1)[C@@H](O)CN(Cc1ccc(-c2ccccn2)cc1)NC(=O)[C@@H](NC(=O)OC)C(C)(C)C)C(C)(C)C [Atazanavir] the “Assay (%) (Limit 90-110% of Labelled amount)” value ([1]; 25° C./60% RH, 2 M) was 99.0%, the “Assay (%) (Limit 90-110% of Labelled amount)” value ([1]; 40° C./75% RH, 2 M) was 98% and the “Assay (%) (Limit 90-110% of Labelled amount)” value ([1]; Initial) was 100.3%.

With CC(C)c1nc(CN(C)C(=O)N[C@H](C(=O)N[C@@H](Cc2ccccc2)C[C@H](O)[C@H](Cc2ccccc2)NC(=O)OCc2cncs2)C(C)C)cs1 [Ritonavir] the “Assay (%) (Limit 90-110% of Labelled amount)” value ([1]; 25° C./60% RH, 2 M) was 99.3%, the “Assay (%) (Limit 90-110% of Labelled amount)” value ([1]; 40° C./75% RH, 2 M) was 96% and the “Assay (%) (Limit 90-110% of Labelled amount)” value ([1]; Initial) was 99.5%. The oral bioavailability [2] was “poor”.

— patent US20100285115A1, “Novel Antiretroviral Combination” (CIPLA LIMITED, priority 2007, published 2010)
